What all share (assay): NCI tumour cell line growth inhibition, 48 h
Assay [1] has as its system DLD-1 colon.
For assay [2], the system named is SNB-78 CNS.
The test system of assay [3] is DMS 273 small cell lung.
Assay [4] has as its system LXFL 529 NSCLC.
The test system of assay [5] is M19-MEL melanoma.
For assay [6], the system named is XF 498 CNS.
For assay [7], the system named is KM20L2 colon.
The test system of assay [8] is DMS 114 small cell lung.
In assay [9] the test system is P388/ADR leukemia.
Assay [10] has as its system P388 leukemia.
Assay [11] relates to SN12K1 renal.
Assay [12] has as its system RXF-631 renal.

“And” between values parts separate entries of the source, which are not always exact repeats. Equal values may be shown once.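 The compound was tested at five concentrations on cells cultured in 96-well plates, with a 48-hour exposure period. The concentration for 50% growth inhibition is given as GI50. TGI marks complete inhibition of growth.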

Turning to `O=C(O)CCCl`, the TGI in [1], in [2], in [3], in [4] and in assay [5] was over 5000 µM each time.
`C=C1C(=O)OC2/C=C(\C)C(OC(C)=O)C3OC3C(C)(O)CC(OC(=O)/C(C)=C/C)C12` (stereo not drawn): the TGI in [6] is 18.2 µM; in assay [7], 15.2 µM; in assay [2], 30.5 µM; in [8], 20 µM; in [3] it was 60 µM; in assay [4], 10.1 µM. In [5], this compound registered a TGI of 22.3 µM.
For the compound `O=C(CSc1nnc(-c2ccc(N=Cc3ccc(Cl)cc3)cc2)o1)Nc1ccccc1Cl`, the TGI in assay [6], in assay [7], in assay [2], in assay [8], in assay [3] and in assay [4] was over 100 µM in each case. The compound further came in with a TGI in assay [5] of over 100 µM.
Regarding `S=c1sc2c(Cl)ncnc2n1-c1ccccc1`, the TGI turned out to be 28.7 µM in assay [6]; 34.2 µM in assay [7]; 24.2 µM in assay [1]; 33.4 µM in assay [2]; 28.1 µM in assay [8]; 2.83 µM in assay [3]. Further, the TGI was determined as 24.9 µM in assay [4] and 13.1 µM in assay [5].
As for `Cc1c2cc[nH]c(C(F)(F)F)c2cc2c1nc1ccccc12`, the TGI in assay [6] is over 19.8 µM; in assay [7], over 125 µM; in [1], over 125 µM; in assay [2], over 125 µM; in assay [8] it was over 125 µM; in [3], over 125 µM. The TGI was over 125 µM in [5], over 70.3 µM in assay [9], over 125 µM in assay [10] and over 125 µM in assay [11].
`CCC1(O)CC(OC2CC(N(C)C)C(OC3CC4OC5CC(=O)C(C)OC5OC4C(C)O3)C(C)O2)c2c(cc3c(c2O)C(=O)c2c(O)ccc(O)c2C3=O)C1C(=O)OC` (stereo not drawn): the GI50 in assay [6] was 0.00256 µM; in assay [7], 0.00351 µM and 0.0075 µM; in assay [1], 0.00984 µM; in assay [2] it was 0.0126 µM; in [3], 0.0075 µM; in assay [9], 0.0075 µM. Also, the GI50 in assay [10] was 0.0075 µM; in assay [11], 0.00862 µM. Further, the TGI is 0.0199 µM and 0.0103 µM in assay [6]; 0.356 µM and 0.0462 µM and 0.0889 µM in [7]; 0.69 µM and 0.13 µM in [1]; 0.854 µM and 0.536 µM in [2]; 0.0431 µM and 0.0473 µM in [8]; 0.0342 µM and 0.0217 µM in [3]. The TGI in assay [4] was 1.18 µM; in [5], 0.0705 µM and 0.0241 µM; in [9] it was 0.008 µM and < 0.0451 µM; in assay [10], 0.00422 µM and 0.00817 µM; in assay [11] it was 0.0369 µM and 0.0325 µM.
In the case of `CCN(CC)CCNC(=O)c1ccccc1NC(=O)C(=O)Nc1ccccc1C(=O)NCCN(CC)CC`, the TGI was over 100 µM in assay [7]; over 100 µM in assay [1]; over 100 µM in assay [2]; over 100 µM in assay [12]; 79.7 µM in assay [8]; over 100 µM in [3]. Besides, the TGI in [5] is 57.5 µM.
Consider `O=C(Nc1c(O)[nH]c(=S)[nH]c1=O)c1ccccn1`, for which the TGI in [7], in assay [1], in assay [2], in assay [12], in [8] and in assay [4] was over 100 µM in each case. The compound further returned a TGI in assay [5] of over 100 µM.
As to `CC12CC3C(CC1SCC(=O)O2)C3(C)C` (stereo not drawn), the TGI in assay [6], in [1], in assay [2], in assay [8], in assay [3] and in assay [4] was over 100 µM throughout. Besides, the TGI in [5] is over 100 µM.
As for `C[N+]1(C)CCCC1C(=O)[O-]` (stereo not drawn), the TGI in [6], in [7], in assay [1], in assay [2], in [8] and in assay [3] was over 100 µM each time. Besides, the TGI in assay [4] and in [5] was over 100 µM each time.
With `Cc1ccc(S(=O)(=O)N/N=C/c2oc(-c3cccc([N+](=O)[O-])c3)c(-c3cccc([N+](=O)[O-])c3)c2[N+](=O)[O-])cc1`, the TGI in assay [6], in [7], in [1], in [12] and in [4] was over 100 µM in each case.
Regarding `CC(=O)OCC1OC(Nc2[nH]c(=O)n(C)c(=O)c2-c2csc(N)n2)C(OC(C)=O)C(OC(C)=O)C1OC(C)=O` (stereo not drawn), the TGI in assay [7], in assay [1], in [2], in assay [12], in assay [8] and in assay [4] was over 100 µM in each case. In assay [5], this compound yielded a TGI of over 100 µM.
Turning to `COc1c2c(c3c(c1C1OC(C)[C@@H](C)O1)CC(C)(C)O3)C(=O)c1ccccc1C2=O` (stereo partly drawn), the TGI in [6] was over 100 µM; in assay [7], over 100 µM; in [1], over 100 µM; in [2] it was over 100 µM; in [12], 33.4 µM; in assay [8], over 100 µM. Further, the TGI in assay [3] is 69.7 µM; in assay [4], over 100 µM; in assay [5] it was over 100 µM.
Take `C1=C(c2ccccc2)CN(c2ccccc2)OC1`: the TGI in assay [6], in [7], in [1], in assay [2], in assay [3] and in [4] was over 100 µM throughout. For the same compound, the TGI in assay [5] is over 100 µM.
